According to patent publication US7919300B2, “Glucose isomerase mutants” (priority 2004, dated 2011):
Like-named read-outs stand apart in the source and are kept apart here.

Biological target: Thermoanaerobacterium saccharolyticum glucose isomerase (ATCC 49915), wild-type, SEQ ID NO.: 2 (Thermoanaerobacterium saccharolyticum, UniProt P30435)
Settings: pH 6.5, 20 mM sodium phosphate, 250 μM CoCl2, 5 mM MgCl2, 10 minutes
Experimental: The isolation and purification of wild-type glucose isomerase were based on Lee et al., (Journal of General Microbiology, 139:1227-1234, 1993) with modifications. pGEMT-TS transformed E. coli HB101 cells were incubated on 1% MacConkey agar plate containing 1% xylose and 50 mg/L ampicillin at 37° C. for 36 hours. A single colony from the plate was inoculated and cultivated in 5 mL LB supplemented with 50 mg/L ampicillin for 16 hours. The bacterial cells were pelleted and resuspended in 1 ml 20 mM phosphate buffer (pH 6.5), and CoCl2 and MgCl2 were added to final concentration of 250 μM and 5 mM, respectively. The cells were disrupted by using ultrasonication and centrifuged at 17,800 g for 15 minutes at 10° C. to collect the supernatant as crude glucose isomerase. The crude enzyme was heated at 80° C. for 10 minutes and centrifuged again at 17,800 g for 15 minutes at 10° C. to remove the precipitation.
Ninety μl of the stock solution was mixed with 10 μl of the glucose isomerase prepared as described in Example 9, incubated at 80° C. for 10 minutes and quenched on ice immediately. The fructose formed was measured by the cysteine-carbazole method (Dische et al., J. Biol. Chem, 192:583-587, 1951; and Nakamura, Agr. Biol. Chem. 32:701-706, 1968). The protein concentration was determined using Coomassie® Plus Protein Assay Reagent Kit (Pierce, USA) and SDD-PAGE, with BSA as the standard.

Chain of Thermoanaerobacterium saccharolyticum glucose isomerase (ATCC 49915), wild-type, SEQ ID NO.: 2 (P30435 whole entry R81A): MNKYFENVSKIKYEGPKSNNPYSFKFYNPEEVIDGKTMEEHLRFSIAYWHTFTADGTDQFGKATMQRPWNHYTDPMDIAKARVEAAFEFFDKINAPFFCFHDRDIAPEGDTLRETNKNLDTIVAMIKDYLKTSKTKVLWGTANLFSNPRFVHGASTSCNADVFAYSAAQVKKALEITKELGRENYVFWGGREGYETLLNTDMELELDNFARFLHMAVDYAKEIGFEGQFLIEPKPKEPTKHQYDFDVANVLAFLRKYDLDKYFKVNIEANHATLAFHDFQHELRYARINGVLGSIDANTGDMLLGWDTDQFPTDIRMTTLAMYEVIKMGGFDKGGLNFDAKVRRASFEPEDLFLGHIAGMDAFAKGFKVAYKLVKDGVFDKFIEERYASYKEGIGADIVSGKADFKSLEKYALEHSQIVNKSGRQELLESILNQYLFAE

`OC[C@H]1OC(O)[C@H](O)[C@@H](O)[C@@H]1O` (stereo partly drawn) [D-glucose] was tested, and the Kcat (65° C.) was 5.742 s⁻¹, the Kcat/Km (65° C.) was 41.7 M⁻¹ s⁻¹ and the Kcat (80° C.) was 14.68 s⁻¹. The Kcat/Km (80° C.) was 98.3 M⁻¹ s⁻¹.
